Values of other authors, collected in EP2221049A2, “SOLID PHARMACEUTICAL COMPOSITION OF DED ANOSINE” (Blanver Farmoquimica, LTDA, priority 2007, dated 2009).

Conditions: pH below 3, 37°C

OC[C@@H]1CC[C@H](n2cnc3c(O)ncnc32)O1 [didanosine, 2',3'-dideoxyinosine]
time period in which 10% of didanosine is decomposed to hypoxanthine: < 2 min
